Measurements reported in patent publication EP0132540A1 (priority 1981, dated 1983).
Values after ≈ are worked out from the molar mass of the structure shown.

Legend:
[1] = test system: ECHO; assay: microbe, parasite or virus in culture; assay type: cell-based
[2] = test system: Influenza A1; assay: microbe, parasite or virus in culture; assay type: cell-based
[3] = Physicochemical properties (qualitative solubility); conditions: qualitative solubility in solvents
[4] = test system: Influenza B; assay: microbe, parasite or virus in culture; assay type: cell-based
[5] = test system: Parainfluenza Type 3; assay: microbe, parasite or virus in culture; assay type: cell-based; conditions: Virus E = Parainfluenza Type 3
[6] = Acute toxicity in mice; parameters: species or system ddy male mice; conditions: mouse, in vivo, suspended in 5% Arabic gum solution, mortality observed for 7 days
Experimental: Experimental Example 7: Acute Toxicity in Mice
Each compound of the invention was suspended in 5% Arabic gum solution and given orally (p.o.) or intraperitoneally (i.p.) to groups of ten ddy male mice weighed from 24 to 26 g at the dosage volume of 10 ml/kg. […] LD50 was determined according to the method of Wilcoxon and Litchfield.

[7] = test system: Coxsackie Type B5; assay: microbe, parasite or virus in culture; assay type: cell-based; conditions: Virus G = Coxsackie Type B5
[8] = test system: Rhino; assay: microbe, parasite or virus in culture; assay type: cell-based
[9] = test system: influenza A0 virus; assay: Protective action against the death of mice infected with influenza A0 virus; assay type: in vivo, ICR female mice; conditions: for Survival rate: twice a day for 14 days, survivors at 15th day
From the text: Experimental Example 2 Protective Action against the Death of Mice. Infected with Influenza A0 Virus,
After the influenza A0 virus was inoculated to groups each -consisting of ten ICR female mice (16 - 18 g) intranasally under light anesthesia with ether, compound of the invention was given orally or intraperitoneally as multiple doses of twice a day starting one hour after infection and continued for 14 days. The result of the treatment was shown as the increase in percentage of survivors at 15th day.

[10] = test system: Influenza A0; assay: microbe, parasite or virus in culture; assay type: cell-based; conditions: Virus A = Influenza A0, MDCK, Vero and HEL cells
[11] = test system: influenza virus B/GL; assay type: in vivo, ICR female mice; conditions: result in words, oral
[12] = ip, Intra-peritoneal administration

Row | Compound | MIC [1] | MIC [2] | Property (solubility) [3] | MIC [4] | MIC [5] | LD50 at 168 h [6, 12] | LD50 at 168 h ([6]; Oral administration) | MIC [7] | MIC [8] | Survival rate ([9]; intraperitoneal, 100 mg/kg) | Survival rate ([9]; oral, 300 mg/kg) | MIC [10] | Survival rate ([9]; intraperitoneal, 10 mg/kg) | Survival rate ([9]; intraperitoneal, 30 mg/kg) | Survival rate ([9]; oral, 30 mg/kg) | Survival rate ([9]; oral, 100 mg/kg) | protective action against death due to the infection ([9]; result in words, oral or intraperitoneal) | survival rates of the treated groups as compared with that of the control [11]
1 | O=C(O)c1ccc(Cl)c(S(=O)(=O)N2CCOCC2)c1 [Compound 6, 4-chloro-3-morpholino-sulfonylbenzoic acid] | 100 µg/mL (≈ 327 µM) | 300 µg/mL (≈ 981 µM) | white crystalline powder; insoluble in benzene, hexane; soluble in hot water, methanol | 300 µg/mL (≈ 981 µM) | 300 µg/mL (≈ 981 µM) | > 1000 mg/kg | > 3000 mg/kg | 300 µg/mL (≈ 981 µM) | 300 µg/mL (≈ 981 µM) | 50% | 50% | 30 µg/mL (≈ 98.1 µM) |  |  |  |  |  | 
2 | CC(C)NS(=O)(=O)c1cc(C(=O)O)ccc1Cl [Compound 4, 4-chloro-3-isopropyl-aminoslfonylbenzoic acid] | 300 µg/mL (≈ 1080 µM) | 100 µg/mL (≈ 360 µM) | white crystalline powder; insoluble in benzene, hexane; soluble in hot water, methanol | 300 µg/mL (≈ 1080 µM) | 300 µg/mL (≈ 1080 µM) | > 1000 mg/kg | > 3000 mg/kg | 300 µg/mL (≈ 1080 µM) | 300 µg/mL (≈ 1080 µM) | 40% | 40% | 30 µg/mL (≈ 108 µM) |  |  |  |  |  | 
3 | COC(=O)c1ccc(F)c(S(N)(=O)=O)c1 [Compound 8, 3-aminosulfonyl-4-fluoromethylbenzoate] |  |  |  |  |  | > 1000 mg/kg | > 3000 mg/kg |  |  |  |  |  |  |  |  |  |  | 
4 | NS(=O)(=O)c1cc(C(=O)O)c(Cl)cc1Cl [Compound 7, 5-aminosulfonyl-2,4-dichlorobenzoic acid] | 100 µg/mL (≈ 370 µM) | 300 µg/mL (≈ 1110 µM) | white crystalline powder; insoluble in benzene, hexane; soluble in hot water, methanol | 100 µg/mL (≈ 370 µM) | 100 µg/mL (≈ 370 µM) | > 1000 mg/kg | > 3000 mg/kg | 100 µg/mL (≈ 370 µM) | 100 µg/mL (≈ 370 µM) |  |  | 10 µg/mL (≈ 37 µM) | 40% | 50% | 40% | 60% | extremely excellent activity | 
5 | CN(C)S(=O)(=O)c1cc(C(=O)O)ccc1Cl [Compound 3, 4-chloro-3-dimethyl-aminosulfonylbenzoic acid] | 300 µg/mL (≈ 1140 µM) | 300 µg/mL (≈ 1140 µM) | white crystalline powder; insoluble in benzene, hexane; soluble in hot water, methanol | 300 µg/mL (≈ 1140 µM) | 300 µg/mL (≈ 1140 µM) | > 1000 mg/kg | > 3000 mg/kg | 300 µg/mL (≈ 1140 µM) | 300 µg/mL (≈ 1140 µM) | 40% | 50% | 30 µg/mL (≈ 114 µM) |  |  |  |  |  | 
6 | CCNS(=O)(=O)c1cc(C(=O)O)ccc1Cl [Compound 2, 4-chloro-3-ethylamino-sulfonylbenzoic acid] | 300 µg/mL (≈ 1140 µM) | 300 µg/mL (≈ 1140 µM) | white crystalline powder; insoluble in benzene, hexane; soluble in hot water, methanol | 300 µg/mL (≈ 1140 µM) | 300 µg/mL (≈ 1140 µM) | > 1000 mg/kg | > 3000 mg/kg | 300 µg/mL (≈ 1140 µM) | 300 µg/mL (≈ 1140 µM) | 40% | 50% | 30 µg/mL (≈ 114 µM) |  |  |  |  |  | 
7 | CNS(=O)(=O)c1cc(C(=O)O)ccc1Cl [Compound 1, 4-chloro-3-methylamino-sulfonylbenzoic acid] | 300 µg/mL (≈ 1200 µM) | 300 µg/mL (≈ 1200 µM) | white crystalline powder; insoluble in benzene, hexane; soluble in hot water, methanol | 300 µg/mL (≈ 1200 µM) | 300 µg/mL (≈ 1200 µM) | > 1000 mg/kg | > 3000 mg/kg | 100 µg/mL (≈ 401 µM) | 300 µg/mL (≈ 1200 µM) | 40% | 50% | 30 µg/mL (≈ 120 µM) |  |  |  |  |  | 
8 | O=C(O)c1ccc(Cl)c(S(=O)(=O)Nc2ccccc2)c1 [Compound 5, 3-anilinosulfonyl-4-chlorobenzoic acid] | 300 µg/mL (≈ 962 µM) | 300 µg/mL (≈ 962 µM) | white crystalline powder; insoluble in benzene, hexane; soluble in hot water, methanol | 300 µg/mL (≈ 962 µM) | 300 µg/mL (≈ 962 µM) | 968 mg/kg | > 3000 mg/kg | 100 µg/mL (≈ 321 µM) | 300 µg/mL (≈ 962 µM) | 40% | 40% | 30 µg/mL (≈ 96.2 µM) |  |  |  |  |  | 
9 | C=CCOC(=O)c1cc(S(N)(=O)=O)c(Cl)cc1Cl [Compound 11, 5-aminosulfonyl-2,4-dichloro-allylbenzoate] |  |  |  |  |  | > 1000 mg/kg | > 3000 mg/kg |  |  |  |  |  |  |  |  |  |  | 
10 | CC(C)OC(=O)c1ccc(Br)c(S(N)(=O)=O)c1 [Compound 9, 3-aminosulfonyl-4-bromo-isopropylbenzoate] |  |  |  |  |  | > 1000 mg/kg | > 3000 mg/kg |  |  |  |  |  |  |  |  |  |  | 
11 | CCCCOC(=O)c1ccc(Br)c(S(N)(=O)=O)c1 [Compound 10, 3-aminosulfonyl-4-bromo-n-butylbenzoate] |  |  |  |  |  | > 1000 mg/kg | > 3000 mg/kg |  |  |  |  |  |  |  |  |  |  | extremely excellent activity
